Literature values, collected in US5545620A, “Synthetic fibronectin fragments as inhibitors of retroviral infection” (priority 1994, dated 1996).

Test system: cell adhesion
Settings: cited from earlier work

| Substance | promotion of cell adhesion |
| --- | --- |
| FN-6: fibronectin fragment (1961-1985) SEQ ID NO. 6, restricted to isoforms containing the type IIIcs region (DELPQLVTLPHPNLHGPEILDVPST) | promotes cell adhesion by an α4β1 integrin-dependent mechanism |
| KNNQKSEPLIGRKKT [FN-2] | promote cell adhesion |
| YEKPGSPPREWPRPRPGV (YEKPGSPPREVVPRPRPGV) [FN-1] | promote cell adhesion |
